ChEMBL document CHEMBL1201862, “PubChem BioAssay data set” (2004)
Activity calls are given as the source filed them.

What was measured:
[1] = inhibitors of HIV Env-driven cell fusion, dose response, cherry-pick (AID 652057); type: functional, cell-based
[2] = ZM109 Env clade C HIV-1 fusion inhibitors, dose response, HeLa effector, CEM target cells, luciferase, cherry-pick (AID 652058); type: functional, cell-based
[3] = off-target signal loss in HeLa-CEM21 co-culture – HeLa F-luc CTL cells, cherry-picked, counter-screen for HIV-1 Env fusion inhibitor project, dose response (AID 652040); type: functional, cell-based;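 further: potency for signal decrease marking cytotoxic or nonspecific inhibition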
[4] = inhibitors of clade B AD8 Env fusion, dose response, cell-based, cherry-pick (AID 652062); type: functional;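 further: luciferase signal from cell-cell fusion driven by HIV-1 clade B AD8 Env; potency is for inhibitors of fusion seen as a drop in luminescence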
[5] = target: Genome polyprotein (dengue virus type 2, UniProt P29990); assay: Dengue-2 NS5 methyltransferase inhibitors, primary screen, biochemical, confirmation dose response (AID 588689); type: functional
Genome polyprotein, sequence (P29990 2492-3391 limits assumed): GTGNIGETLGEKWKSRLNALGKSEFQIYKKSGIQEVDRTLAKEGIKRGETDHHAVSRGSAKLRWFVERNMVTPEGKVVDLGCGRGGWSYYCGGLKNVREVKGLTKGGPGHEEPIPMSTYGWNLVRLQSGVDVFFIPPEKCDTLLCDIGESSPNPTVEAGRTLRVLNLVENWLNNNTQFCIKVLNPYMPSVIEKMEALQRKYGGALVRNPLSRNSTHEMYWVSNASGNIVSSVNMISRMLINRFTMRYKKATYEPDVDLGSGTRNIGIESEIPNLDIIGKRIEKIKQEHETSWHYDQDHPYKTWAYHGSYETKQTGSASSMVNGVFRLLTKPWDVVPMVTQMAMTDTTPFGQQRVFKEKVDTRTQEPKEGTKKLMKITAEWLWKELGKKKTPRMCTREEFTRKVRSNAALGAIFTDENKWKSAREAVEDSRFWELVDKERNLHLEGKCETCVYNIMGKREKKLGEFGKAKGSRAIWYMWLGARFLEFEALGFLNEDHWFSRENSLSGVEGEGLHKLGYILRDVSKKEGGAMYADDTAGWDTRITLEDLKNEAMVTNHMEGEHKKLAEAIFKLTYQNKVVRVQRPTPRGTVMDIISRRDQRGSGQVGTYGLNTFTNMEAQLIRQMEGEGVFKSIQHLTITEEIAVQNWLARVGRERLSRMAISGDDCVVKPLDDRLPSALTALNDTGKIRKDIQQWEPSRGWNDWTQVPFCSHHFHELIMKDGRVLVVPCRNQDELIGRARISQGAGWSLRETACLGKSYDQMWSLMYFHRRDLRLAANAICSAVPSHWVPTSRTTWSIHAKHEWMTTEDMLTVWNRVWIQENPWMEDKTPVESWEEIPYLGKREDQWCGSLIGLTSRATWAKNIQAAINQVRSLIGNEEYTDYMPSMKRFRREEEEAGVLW

[6] = target: Cytochrome P450 2C19 (Homo sapiens, UniProt P33261); assay: Cytochrome panel assay with activity outcomes. Panel member name: p450-cyp2c19 Compounds with AC50 equal or less than 10 uM are considered active; type: functional; details: read-out: AC50
Cytochrome P450 2C19, sequence (P33261 whole entry): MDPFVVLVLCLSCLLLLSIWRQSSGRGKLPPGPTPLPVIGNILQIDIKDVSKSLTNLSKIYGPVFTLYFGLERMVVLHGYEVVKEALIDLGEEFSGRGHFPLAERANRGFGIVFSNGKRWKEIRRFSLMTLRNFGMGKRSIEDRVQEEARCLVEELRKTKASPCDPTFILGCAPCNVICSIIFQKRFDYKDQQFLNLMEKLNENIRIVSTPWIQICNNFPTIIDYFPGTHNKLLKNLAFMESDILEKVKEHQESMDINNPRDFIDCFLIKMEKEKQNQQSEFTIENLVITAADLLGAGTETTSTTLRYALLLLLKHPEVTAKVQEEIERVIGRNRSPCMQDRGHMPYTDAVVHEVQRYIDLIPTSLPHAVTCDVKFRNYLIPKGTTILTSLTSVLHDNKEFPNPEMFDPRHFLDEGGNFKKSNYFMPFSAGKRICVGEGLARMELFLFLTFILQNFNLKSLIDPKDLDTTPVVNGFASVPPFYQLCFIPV

[7] = target: T1, Cytochrome P450 2C9 (Homo sapiens, UniProt P11712)
T1 sequence (P11712 whole entry): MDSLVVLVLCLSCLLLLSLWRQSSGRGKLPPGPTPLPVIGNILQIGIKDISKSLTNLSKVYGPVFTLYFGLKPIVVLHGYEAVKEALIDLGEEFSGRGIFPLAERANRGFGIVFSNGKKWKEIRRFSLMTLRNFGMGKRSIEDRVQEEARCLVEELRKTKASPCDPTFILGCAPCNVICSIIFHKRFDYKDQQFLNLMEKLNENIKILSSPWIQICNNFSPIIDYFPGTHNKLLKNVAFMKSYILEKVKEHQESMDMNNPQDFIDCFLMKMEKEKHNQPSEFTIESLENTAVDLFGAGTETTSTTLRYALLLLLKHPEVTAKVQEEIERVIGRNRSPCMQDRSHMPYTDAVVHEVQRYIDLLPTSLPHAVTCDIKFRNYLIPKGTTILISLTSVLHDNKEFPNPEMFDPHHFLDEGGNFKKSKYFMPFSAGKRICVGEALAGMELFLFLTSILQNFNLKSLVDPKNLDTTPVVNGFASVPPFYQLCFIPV

[8] = target: Cytochrome P450 3A4 (Homo sapiens, UniProt P08684);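 further: CYP3A4 tested as one member of a cytochrome P450 panel screen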
Cytochrome P450 3A4, sequence (P08684 whole entry): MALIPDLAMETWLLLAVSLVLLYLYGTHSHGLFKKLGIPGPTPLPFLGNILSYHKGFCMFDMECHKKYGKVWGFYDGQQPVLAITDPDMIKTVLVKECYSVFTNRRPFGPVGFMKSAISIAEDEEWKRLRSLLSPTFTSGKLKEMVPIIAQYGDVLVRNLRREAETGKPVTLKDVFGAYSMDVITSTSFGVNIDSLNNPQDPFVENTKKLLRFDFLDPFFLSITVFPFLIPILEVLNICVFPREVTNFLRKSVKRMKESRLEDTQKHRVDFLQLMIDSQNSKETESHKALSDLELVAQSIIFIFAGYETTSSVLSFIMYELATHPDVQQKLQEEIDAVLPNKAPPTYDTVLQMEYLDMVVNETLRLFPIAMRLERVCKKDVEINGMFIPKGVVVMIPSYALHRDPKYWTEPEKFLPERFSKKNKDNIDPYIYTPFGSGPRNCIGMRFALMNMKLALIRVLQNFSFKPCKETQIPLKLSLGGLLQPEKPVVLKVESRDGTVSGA

[9] = target: T2, Cytochrome P450 1A2 (Homo sapiens, UniProt P05177);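 further: PubChem cytochrome P450 panel assay, CYP1A2 panel member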
T2 sequence (P05177 whole entry): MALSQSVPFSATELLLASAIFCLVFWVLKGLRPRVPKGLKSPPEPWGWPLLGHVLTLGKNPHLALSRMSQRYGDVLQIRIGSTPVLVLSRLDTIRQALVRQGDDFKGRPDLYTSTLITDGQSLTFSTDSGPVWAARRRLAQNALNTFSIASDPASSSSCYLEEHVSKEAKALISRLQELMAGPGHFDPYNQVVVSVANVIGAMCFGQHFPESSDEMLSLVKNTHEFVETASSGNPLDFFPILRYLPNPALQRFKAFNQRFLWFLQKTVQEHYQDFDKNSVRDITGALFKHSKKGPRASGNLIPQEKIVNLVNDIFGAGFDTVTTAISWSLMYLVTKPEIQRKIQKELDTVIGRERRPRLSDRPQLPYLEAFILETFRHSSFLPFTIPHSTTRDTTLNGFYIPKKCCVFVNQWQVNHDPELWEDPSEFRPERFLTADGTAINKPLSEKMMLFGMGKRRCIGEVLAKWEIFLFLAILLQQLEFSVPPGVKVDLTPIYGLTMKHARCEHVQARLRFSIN

[10] = target: T1, Cytochrome P450 2C9; remark: listed apart in the source
[11] = target: T3, Cysteine protease ATG4B (Homo sapiens, UniProt Q9Y4P1); type: functional;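 further: Fluorescence-based dose-response confirmation assay measuring inhibition of ATG4B activity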
T3 sequence (Q9Y4P1 whole entry): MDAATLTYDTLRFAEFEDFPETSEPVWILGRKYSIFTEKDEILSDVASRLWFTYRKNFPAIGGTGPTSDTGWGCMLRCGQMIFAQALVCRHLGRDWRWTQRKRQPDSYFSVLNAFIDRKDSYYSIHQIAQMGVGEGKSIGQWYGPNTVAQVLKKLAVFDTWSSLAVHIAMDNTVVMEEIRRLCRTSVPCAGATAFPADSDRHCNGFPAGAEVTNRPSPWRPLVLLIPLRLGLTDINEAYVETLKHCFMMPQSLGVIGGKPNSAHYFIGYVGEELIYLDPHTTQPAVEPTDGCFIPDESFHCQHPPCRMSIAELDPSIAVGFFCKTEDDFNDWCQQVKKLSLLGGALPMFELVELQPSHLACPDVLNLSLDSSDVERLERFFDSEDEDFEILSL

[12] = target: Phospholipase A2 (Homo sapiens, UniProt P04054); type: functional;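 further: confirmatory dose-response counterscreen on phospholipase A2, testing hits that came from an ultra-high-throughput screen for ATG4B inhibitors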
Phospholipase A2, sequence (P04054 whole entry): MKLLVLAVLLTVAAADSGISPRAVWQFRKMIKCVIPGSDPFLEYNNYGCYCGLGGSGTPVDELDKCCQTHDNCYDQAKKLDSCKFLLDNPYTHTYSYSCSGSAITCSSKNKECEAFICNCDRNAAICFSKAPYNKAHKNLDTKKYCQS

[13] = inhibitors of intracellular T. cruzi replication, confirmation, NIH3T3 host cells, beta-gal luminescence (AID 2044); type: functional, cell-based;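 further: intracellular parasites grown in NIH/3T3 mouse fibroblasts as host cells; luminescent beta-galactosidase reporter signal from transgenic T. cruzi replicating inside host cells; inhibitors lower the luminescence signal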
[14] = cytotoxicity toward NIH3T3 fibroblasts, dose response, counter-screen, cell-based, ATP luminescence, mouse fibroblasts (AID 2010); type: functional;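 further: cells exposed to compound for about 90 hours before reading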
[15] = cells; type: functional
[16] = target: Heat shock protein HSP 90-alpha (Homo sapiens, UniProt P07900); type: functional, organism-based
[17] = tested on: Streptococcus sp. 'group A'; assay: growth inhibition of control SK(-) GAS strain, dose response, counter-screen for streptokinase expression inhibitor project, luminescence, kanamycin, BacTiterGlo, confirmation (AID 1900); type: functional, organism-based
[18] = target: T4, Streptokinase A (Streptococcus pyogenes serotype M1, UniProt P10520); assay: S. pyogenes streptokinase expression inhibitors, potency, dose response, plasminogen activation absorbance, OD405 (AID 1914); type: functional, Streptococcus pyogenes M1 GAS;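 further: secreted streptokinase activity via plasminogen activation per viability signal from cell pellet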
T4 sequence (P10520 whole entry): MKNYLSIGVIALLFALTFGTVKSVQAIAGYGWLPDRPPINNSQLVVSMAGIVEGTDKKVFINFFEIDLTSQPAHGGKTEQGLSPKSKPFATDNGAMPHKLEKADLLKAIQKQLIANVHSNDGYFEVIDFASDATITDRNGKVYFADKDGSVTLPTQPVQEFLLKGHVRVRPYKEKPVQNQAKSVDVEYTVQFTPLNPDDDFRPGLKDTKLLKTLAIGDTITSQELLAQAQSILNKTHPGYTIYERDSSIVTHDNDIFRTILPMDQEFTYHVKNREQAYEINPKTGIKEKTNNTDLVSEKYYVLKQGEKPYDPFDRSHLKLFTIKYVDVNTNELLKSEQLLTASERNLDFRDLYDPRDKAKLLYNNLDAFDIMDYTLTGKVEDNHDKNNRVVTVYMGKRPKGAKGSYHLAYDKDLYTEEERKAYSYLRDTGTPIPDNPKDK

[19] = tested on: Streptococcus; assay: Group A Streptococcus viability loss, dose response, counter-screen for streptokinase expression inhibitor project, luminescence, BacTiterGlo (AID 1915); type: functional, organism-based;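 further: potency for reduction of bacterial viability or growth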
[20] = target: T5, Carboxy-terminal domain RNA polymerase II polypeptide A small phosphatase 1 (Homo sapiens, UniProt Q9GZU7); assay: inhibitors of CTDSP1, concentration-response testing, biochemical assay, absorbance-based, actives from ultra-high-throughput screening (AID 540297); type: functional
T5 sequence (Q9GZU7 whole entry): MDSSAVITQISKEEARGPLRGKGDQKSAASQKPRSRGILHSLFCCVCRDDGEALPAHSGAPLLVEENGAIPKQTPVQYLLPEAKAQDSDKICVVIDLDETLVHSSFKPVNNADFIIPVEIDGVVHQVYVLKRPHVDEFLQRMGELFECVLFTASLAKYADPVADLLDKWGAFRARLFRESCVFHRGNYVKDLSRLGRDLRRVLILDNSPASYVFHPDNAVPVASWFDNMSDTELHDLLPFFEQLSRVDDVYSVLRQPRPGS

## COc1ccccc1[C@@H]1C(c2ccc(F)cc2)=NN(c2ccccc2)[C@H]1C(=O)N1CCOC1=O
[1]
  AC50: 3.59 µM (active)
[2]
  AC50: 7.77 µM (active)
[3]
  AC50: 7.61 µM (active)
[4]
  AC50: 12.6 µM (active)

## O=c1nc2n(c(O)c1C(c1ccc(O)cc1)c1c(O)nc3n(c1=O)CCS3)CCS2 (stereo not given)
[5]
  IC50: 48.5 µM (active)

## COc1ccc2c(Cl)cc(NC(=S)Nc3ccccc3)nc2c1
[6]
  AC50: 3.16 µM (inconclusive)
[7]
  AC50: 3.98 µM (inconclusive)
[8]
  AC50: inconclusive

## Cc1ccc(OCC(=O)NNC(=O)c2cc3ccccc3o2)cc1C
[6]
  AC50: 3.55 µM (inconclusive)
[9]
  AC50: 2.51 µM (inconclusive)
[10]
  AC50: inconclusive

## Cn1cccc1C(=O)N1CCC2(CC1)CCN(c1ccccc1)CC2
[9]
  AC50: 12.6 µM (inconclusive)
[8]
  AC50: inconclusive

## Cc1sc2nc(C(C)C)nc(SCC(=O)NCc3ccco3)c2c1C
[11]
  IC50: 11.1 µM (active)
[12]
  IC50: 5.93 µM (active)

## CCOC(=O)c1ccc2nc(C)c(CCC(C)=O)c(Cl)c2c1
[7]
  AC50: 1 µM (inconclusive)
[8]
  AC50: inconclusive

## COc1ccc(OC)c(N2C(=O)NC(=O)/C(=C/c3ccc([N+](=O)[O-])s3)C2=O)c1
[13]
  EC50: 2.1 µM (active)
[14]
  EC50: > 60 µM (inconclusive)
[15]
  IC50: 23.7 µM (active)
[16]
  AC50: 3.06 µM (active)
[5]
  IC50: 18.8 µM (active)

## CCC[N+]1(CC#CC2(O)CCCCC2)CCOCC1
[17]
  EC50: > 150 µM (not active)
[18]
  EC50: > 150 µM (not active)
[19]
  EC50: > 150 µM (not active)
[20]
  IC50: 5.44 µM (active)

## Cc1cccc(N2C(=O)N3[C@H](c4ccc(Br)cc4)[C@@H]4C(=O)N(C(C)(C)C)C(=O)[C@@H]4[C@]3(C)C2=O)c1
[1]
  AC50: 0.48 µM (active)
[2]
  AC50: 0.746 µM (active)
[3]
  AC50: 0.936 µM (active)
[4]
  AC50: 1.69 µM (active)
